Measured values published in US9926585B2, “Method for producing a minor ginsenoside using a ginsenoside glycosidase” (INTELLIGENT SYNTHETIC BIOLOGY CENTER, priority 2015, dated 2018).
“Also recorded” adds a separate entry of the source. Like-named read-outs stand apart in the source and are kept apart here.

Columns and labels:
[1] = tested on: ginsenoside glycosidase MT619; assay: Effects of metals and chemical reagents on MT619 activity (residual activity, pNPG substrate); assay type: biochemical, Microbacterium testaceum
[2] = tested on: ginsenoside glycosidase MT619; assay: Substrate specificity of MT619 with chromogenic ONP and PNP substrates; assay type: biochemical, Microbacterium testaceum; conditions: for substrate specificity of MT619: 2.0 mM substrate, 37° C.; for Relative activity (%) MT619: final substrate concentration 2.0 mM, 37° C. for 5 minutes, relative to enzymatic activity for pNP-β-D-glucopyranoside
Protocol: In order to analyze substrate specificity of […], 2.0 mM chromogenic O-nitrophenyl (ONP) and p-nitrophenyl (PNP) were used as substrates, and measured at 37° C. for 5 minutes. 1 activity unit was defined as the release of 1 μmol of o-nitrophenol or p-nitrophenol per minute. Substrates used for analysis were pNP-α-L-arabinofuranoside, pNP-β-L-arabinopyranoside, pNP-α-L-D-fucopyranoside, pNP-α-L-rhamnopyranoside, pNP-α-D-glucopyranoside, pNP-α-D-mannopyranoside, pNP-β-D-galactopyranoside, oNP-β-D-glucopyranoside, oNP-β-D-fucopyranoside, pNP-β-D-xylopyranoside, pNP-β-L-arabinofuranoside, oNP-β-D-fucopyranoside, oNP-α-D-galactopyranoside, and pNP-β-D-glucopyranoside, which were purchased from Sigma.

[3] = tested on: ginsenoside glycosidase MT619; assay: Ginsenoside conversion ability of MT619 (TLC); assay type: biochemical, Microbacterium testaceum; conditions: 2.0 mg/ml MT619, 2.0 mg/ml substrate, 37° C., 1.5 hr
Protocol: In order to analyze the specificity and selectivity of the enzyme for the hydrolysis of a sugar attached at the C-6 position of ginsenoside, ginsenoside Re, Rg1 and Rg2 were used as the substrates.
2.0 mg/ml of MT619 in 50 mM sodium phosphate buffer (pH 7.0) was reacted with each 2.0 mg/ml of the three substrates in 50 mM sodium phosphate (pH 6.0) at an equal volume at 37° C. In order to measure cleavage activity of MT619, the samples were collected at 1.5 hr after reaction, and an equal volume of water-saturated butanol was added to stop the reaction. The n-butanol fraction was evaporated to dryness, and residual material was dissolved in CH3OH and then examined by thin layer chromatography (TLC), and the results are given in FIG. 4.

[4] = assay type: biochemical; conditions: 2.0 mM pNPGlc, 50 mM potassium phosphate buffer, 10 minutes, 4 to 65° C.
Protocol: In order to measure the effect of temperature on the enzymatic activity of MT619, 2.0 mM pNPGlc (p-nitrophenyl-3-Dglucopyranoside; Sigma) was used to analyze the temperature-dependent activity in the 50 mM potassium phosphate buffer at the optimum pH for 10 minutes while varying the temperature between 4 to 65° C.
Further, in order to measure the effect of temperature on the enzymatic stability of MT619, the equivalent amount of enzyme was incubated in 50 mM potassium phosphate buffer within the same temperature range for 30 minutes. In detail, the sample was cooled in ice for 10 minutes, and temperature stability analysis was performed by measuring the residual activity according to a standard analytical procedure, and the results are given in FIG. 3.

[5] = F1 production ability from ginsenoside Rg1, MT619 compared with BgpA; assay type: biochemical
Description: In order to evaluate production ability of MT619 to produce F1 by using Rg1 as a substrate, its F1 production ability was compared with that of ginsenoside glucosidase derived from […].
BgpA derived from Terrabacter ginsenosidimutans, which is known to produce F1 by using ginsenoside Rg1 as a substrate, was used as a comparative control group.

[6] = Effect of pH on enzymatic activity and stability of MT619; assay type: biochemical
Protocol: In order to measure the effect of pH on the enzymatic activity of MT619, 2.0 mM pNPGlc (p-nitrophenyl-D-glucopyranoside; Sigma) was used as a substrate, and pH was adjusted using the following buffer (50 mM). pH range of 2 to 10: KCl—HCl (pH 2), glycine-HCl (pH 3), sodium acetate (pH 4 and pH 5), sodium phosphate (pH 6 and pH 7), Tris-HCl (pH 8 and pH 9) and glycine-sodium hydroxide (pH 10).
Further, the effect of pH on the enzymatic stability was measured. Enzyme was incubated in each of the above mentioned buffers at 4° C. for 24 hours, and then pNPGlc was analyzed in 50 mM potassium buffer to measure the enzymatic stability according to pH change. Residual activity was analyzed according to a standard analytical procedure, and the results are given in FIG. 2 as an activity percentage obtained at the optimum pH.

[7] = 10 mM reagent, 37° C. for 30 minutes, pNPG substrate, residual activity as percentage of activity without the compounds

OCCS [Beta-Mercaptoethanol]
Relative activity (%) [1, 7]: 94 ± 2%

[Cl-].[Cl-].[Mg+2] [MgCl2]
Relative activity (%) [1, 7]: 112.7 ± 4.1%

O=[N+]([O-])c1ccccc1O[C@@H]1O[C@H](CO)[C@@H](O)[C@H](O)[C@H]1O [oNP-β-glucopyranoside, oNP-β-D-glucopyranoside]
substrate specificity of MT619 [2]: showed substrate specificity | Relative activity (%) MT619 [2]: 28.7 ± 2.1%

[Cl-].[Cl-].[Co+2] [CoCl2]
Relative activity (%) [1]: 17.9 ± 0.5% | effect of ions on enzymatic activity of MT619 [1]: strongly inhibited

O[C@H](CS)[C@H](O)CS (racemic) [DTT, dithiothreitol]
Relative activity (%) [1, 7]: 79.6 ± 1.6%

CCCCCCCCCCCCOS(=O)(=O)[O-].[Na+] [SDS]
Relative activity (%) [1, 7]: 80.6 ± 6.1%

[Cl][Hg][Cl] [HgCl2]
effect of ions on enzymatic activity of MT619 ([1]; 10 mM, 37° C., 30 minutes): strongly inhibited

CC(C)=CCC[C@](C)(O[C@@H]1O[C@H](CO)[C@@H](O)[C@H](O)[C@H]1O)[C@H]1CC[C@]2(C)[C@@H]1[C@H](O)C[C@@H]1[C@@]3(C)CC[C@H](O)C(C)(C)[C@@H]3[C@@H](O[C@@H]3O[C@H](CO)[C@@H](O)[C@H](O)[C@H]3O[C@@H]3O[C@@H](C)[C@H](O)[C@@H](O)[C@H]3O)C[C@]12C [Re, ginsenoside Re]
conversion of ginsenoside by MT619 (TLC, words) [3]: converted into ginsenoside F1

[Ca+2].[Cl-].[Cl-] [CaCl2]
Relative activity (%) [1, 7]: 132.8 ± 2.4% | effect of ions on enzymatic activity of MT619 ([1]; 10 mM, 37° C., 30 minutes, listed as Ca^2+): did not greatly increase; also recorded: not greatly increased

[Cl-].[Cl-].[Zn+2] [ZnCl2]
effect of ions on enzymatic activity of MT619 ([1]; 10 mM, 37° C., 30 minutes): strongly inhibited

O=C(O)CN(CCN(CC(=O)O)CC(=O)O)CC(=O)O [EDTA]
Relative activity (%) [1]: 80.9 ± 2.3%

CC(C)=CCC[C@](C)(O[C@@H]1O[C@H](CO)[C@@H](O)[C@H](O)[C@H]1O)[C@H]1CC[C@]2(C)[C@@H]1[C@H](O)C[C@@H]1[C@@]3(C)CC[C@H](O)C(C)(C)[C@@H]3[C@@H](O[C@@H]3O[C@H](CO)[C@@H](O)[C@H](O)[C@H]3O)C[C@]12C [Rg1, ginsenoside Rg1]
conversion of ginsenoside by MT619 (TLC, words) [3]: conversion of ginsenoside Rg1 into F1 was confirmed; also recorded: converted into ginsenoside F1

[Cl-].[K+] [KCl]
Relative activity (%) [1, 7]: 95.3 ± 1.1% | effect of ions on enzymatic activity of MT619 ([1]; 10 mM, 37° C., 30 minutes, listed as K^+): did not greatly increase; also recorded: not greatly increased

[Cl][Cu][Cl] [CuCl2]
effect of ions on enzymatic activity of MT619 ([1]; 10 mM, 37° C., 30 minutes): strongly inhibited

O=[N+]([O-])c1ccc(O[C@@H]2O[C@H](CO)[C@@H](O)[C@H](O)[C@H]2O)cc1 [pNP-β-D-glucopyranoside, p-nitrophenyl-β-D-glucopyranoside]
substrate specificity of MT619 [2]: highest substrate specificity | Relative activity (%) MT619 [2]: 100 ± 1.2%

[Cl-].[Na+] [Nacl, NaCl]
Relative activity (%) [1, 7]: 128.1 ± 3.7% | effect of ions on enzymatic activity of MT619 ([1]; 10 mM, 37° C., 30 minutes, listed as Na^+): did not greatly increase; also recorded: not greatly increased

[Cl][Mn][Cl] [MnCl2]
Relative activity (%) [1, 7]: 59.9 ± 2.6%

B1: MT619: ginsenoside glycosidase of SEQ ID NO: 1 screened from Microbacterium testaceum, 619 amino acids (protein, listed as Microbacterium testaceum)
chain: MTHARFLTAPDGTRFRDLNGNGVMDPYENPALSVEERTDDLVSRLSLEEKVGLMFQTVIEVGDEGELLEAPGKISKSPTTTVVVGKHMNHFNVHAIRTARQAATWNNNLQALAETTPHGIPVTISTDPRHAFVENTGVAFSAGPFSQWPEGLGLAALDDVDTVREFAEVARREYVAVGIRAALHPQIDLATEPRWGRQAQTLGQDAARVTEFTAAYLQGFQGDELGPDSVACTTKHFPGGGPQLDGEDAHFPYGREQVYPGGMFDYHLEPFREAIRCGTAGMMPYYGMPVGLEVDGLPIEEVGFGYNRQIITGLLREQLGYDGVVVTDWELVNDNHVGDQVLPARAWGVEHLSAVERMEKILDAGSDQFGGEECVEMLVDLVRAGRVSEERIDESVRRLLRVKFQLGLFDDPYVDVDEAERIVGNAEFRALGERAQAHSLTVLVNEGDVLPLRPAGAVYIEGFRPDDVAELGRVVTDPAEADLAIVRIGAPFDPRDDLFLEAWFHQGSLEFAPGLVYRLQQIAASCPLILVVNLDRPAILTPFVGHAAAIVADYGSSSAAVLDALTGRVPPRGRLPIEIPRSMDAVRSSREDVPSDTGDPVFPVHHGVELKVSTGAQRG
temperature of highest activity (optimum temperature) [4]: 45 °C | time of highest F1 production ability after initiation of the reaction ([5]; enzyme 0.1 mg/ml, Rg1 substrate): 2 h | F1 produced ([5]; enzyme concentration 0.1 mg/ml, Rg1 (2.0 mg/ml) as substrate): 1.3 mg | production of F1 relative to BgpA ([5]; enzyme concentration 0.1 mg/ml, Rg1 as substrate): 7 times | pH of highest activity and stability ([6]; pH 2 to 10 buffers 50 mM, stability after 4° C. for 24 hours): 7.0 | pH of highest stability ([6]; summary statement of Example 3-2): 7.0
